Key:
[1] = system: Alopecurus myosuroides; assay: Pre-emergence herbicidal effect; assay type: in vivo; details: Dosage 320 (0.32 kg active substance per hectare); visual scoring after 3 weeks vs untreated controls; 100% = plants have died
Description: (§1) Seeds of monocotyledonous or dicotyledonous weed plants or crop plants are planted in wood-fiber pots in sandy loam and covered with earth. The compounds according to the invention, formulated in the form of wettable powders (WP) or as emulsion concentrates (EC), are then applied as aqueous suspension or emulsion at a water application rate of 600 to 800 I/ha (converted) with the addition of 0.2% of wetting agent to the surface of the covering earth. Following the treatment, the pots are placed in a greenhouse and kept under good growth conditions for the test plants. The visual scoring of the damage on the test plants is carried out after an experiment time of 3 weeks in comparison with untreated controls (herbicidal effect in percent (%): 100% effect=plants have died, 0% effect=as control plants). [table]

[2] = system: Amaranthus retroflexus; assay: Pre-emergence herbicidal effect; assay type: in vivo; details: Dosage 320 (0.32 kg active substance per hectare); visual scoring after 3 weeks vs untreated controls; 100% = plants have died
Description: as §1

[3] = system: Echinochloa crus-galli; assay: Pre-emergence herbicidal effect; assay type: in vivo; details: Dosage 320 (0.32 kg active substance per hectare); visual scoring after 3 weeks vs untreated controls; 100% = plants have died
Description: as §1

[4] = system: Lolium multiflorum; assay: Pre-emergence herbicidal effect; assay type: in vivo; details: Dosage 320 (0.32 kg active substance per hectare); visual scoring after 3 weeks vs untreated controls; 100% = plants have died
Description: as §1

[5] = system: Matricaria inodora; assay: Pre-emergence herbicidal effect; assay type: in vivo; details: Dosage 320 (0.32 kg active substance per hectare); visual scoring after 3 weeks vs untreated controls; 100% = plants have died
Description: as §1

[6] = system: Polygonum convolvulus; assay: Pre-emergence herbicidal effect; assay type: in vivo; details: Dosage 320 (0.32 kg active substance per hectare); visual scoring after 3 weeks vs untreated controls; 100% = plants have died
Description: as §1

[7] = system: Setaria viridis; assay: Pre-emergence herbicidal effect; assay type: in vivo; details: Dosage 320 (0.32 kg active substance per hectare); visual scoring after 3 weeks vs untreated controls; 100% = plants have died
Description: as §1

[8] = system: Stellaria media; assay: Pre-emergence herbicidal effect; assay type: in vivo; details: Dosage 320 (0.32 kg active substance per hectare); visual scoring after 3 weeks vs untreated controls; 100% = plants have died
Description: as §1

[9] = system: Veronica persica; assay: Pre-emergence herbicidal effect; assay type: in vivo; details: Dosage 320 (0.32 kg active substance per hectare); visual scoring after 3 weeks vs untreated controls; 100% = plants have died
Description: as §1

[10] = system: Viola tricolor; assay: Pre-emergence herbicidal effect; assay type: in vivo; details: Dosage 320 (0.32 kg active substance per hectare); visual scoring after 3 weeks vs untreated controls; 100% = plants have died
Description: as §1

[11] = system: Abutilon theophrasti; assay: Post-emergence herbicidal effect; assay type: in vivo; details: Dosage 320 (0.32 kg active substance per hectare); treated in one-leaf stage; visual scoring after ca. 3 weeks vs untreated controls; 100% = plants have died
Method: (§2) [table] 2. Post-emergence herbicidal effect and crop plant compatibility Seeds of monocotyledonous or dicotyledonous weed plants or crop plants are planted in wood-fiber pots in sandy loam, covered with earth and grown in a greenhouse under good growth conditions. 2 to 3 weeks after sowing, the test plants are treated in the one-leaf stage. The compounds according to the invention, formulated in the form of wettable powders (WP) or as emulsion concentrates (EC), are then sprayed onto the green plant parts as aqueous suspension or emulsion at a water application rate of 600 to 800 I/ha (converted) with the addition of 0.2% of wetting agent. After ca. 3 weeks' standing time of the test plants in the greenhouse under optimum growth conditions, the effect of the preparations is scored visually in comparison with untreated controls (herbicidal effect in percent (%): 100% effect=plants have died, 0% effect=as control plants).

[12] = system: Amaranthus retroflexus; assay: Post-emergence herbicidal effect; assay type: in vivo; details: Dosage 320 (0.32 kg active substance per hectare); treated in one-leaf stage; visual scoring after ca. 3 weeks vs untreated controls; 100% = plants have died
Method: as §2

[13] = system: Echinochloa crus-galli; assay: Post-emergence herbicidal effect; assay type: in vivo; details: Dosage 320 (0.32 kg active substance per hectare); treated in one-leaf stage; visual scoring after ca. 3 weeks vs untreated controls; 100% = plants have died
Method: as §2

[14] = system: Lolium multiflorum; assay: Post-emergence herbicidal effect; assay type: in vivo; details: Dosage 320 (0.32 kg active substance per hectare); treated in one-leaf stage; visual scoring after ca. 3 weeks vs untreated controls; 100% = plants have died
Method: as §2

[15] = system: Pharbitis purpurea; assay: Post-emergence herbicidal effect; assay type: in vivo; details: Dosage 320 (0.32 kg active substance per hectare); treated in one-leaf stage; visual scoring after ca. 3 weeks vs untreated controls; 100% = plants have died
Method: as §2

[16] = system: Setaria viridis; assay: Post-emergence herbicidal effect; assay type: in vivo; details: Dosage 320 (0.32 kg active substance per hectare); treated in one-leaf stage; visual scoring after ca. 3 weeks vs untreated controls; 100% = plants have died
Method: as §2

[17] = system: Stellaria media; assay: Post-emergence herbicidal effect; assay type: in vivo; details: Dosage 320 (0.32 kg active substance per hectare); treated in one-leaf stage; visual scoring after ca. 3 weeks vs untreated controls; 100% = plants have died
Method: as §2

[18] = system: Veronica persica; assay: Post-emergence herbicidal effect; assay type: in vivo; details: Dosage 320 (0.32 kg active substance per hectare); treated in one-leaf stage; visual scoring after ca. 3 weeks vs untreated controls; 100% = plants have died
Method: as §2

[19] = system: Viola tricolor; assay: Post-emergence herbicidal effect; assay type: in vivo; details: Dosage 320 (0.32 kg active substance per hectare); treated in one-leaf stage; visual scoring after ca. 3 weeks vs untreated controls; 100% = plants have died
Method: as §2

[20] = system: Polygonum convolvulus; assay: Post-emergence herbicidal effect; assay type: in vivo; details: Dosage 320 (0.32 kg active substance per hectare); treated in one-leaf stage; visual scoring after ca. 3 weeks vs untreated controls; 100% = plants have died
Method: as §2

[21] = system: Cyperus esculentus; assay: Pre-emergence herbicidal effect; assay type: in vivo; details: Dosage 320 (0.32 kg active substance per hectare); visual scoring after 3 weeks vs untreated controls; 100% = plants have died
Description: as §1

[22] = system: Chenopodium album; assay: Post-emergence herbicidal effect; assay type: in vivo; details: Dosage 320 (0.32 kg active substance per hectare); treated in one-leaf stage; visual scoring after ca. 3 weeks vs untreated controls; 100% = plants have died
Method: as §2

[23] = system: Matricaria inodora; assay: Post-emergence herbicidal effect; assay type: in vivo; details: Dosage 320 (0.32 kg active substance per hectare); treated in one-leaf stage; visual scoring after ca. 3 weeks vs untreated controls; 100% = plants have died
Method: as §2

[24] = logp (HCOOH), chemicophysical data; details: HCOOH (formic acid)

Row | Structure (SMILES) | Pre-emergence herbicidal effect ALOMY [1] [%] | Pre-emergence herbicidal effect AMARE [2] [%] | Pre-emergence herbicidal effect ECHCG [3] [%] | Pre-emergence herbicidal effect LOLMU [4] [%] | Pre-emergence herbicidal effect POLCO [6] [%] | Pre-emergence herbicidal effect SETVI [7] [%] | Pre-emergence herbicidal effect VERPE [9] [%] | Pre-emergence herbicidal effect VIOTR [10] [%] | Post-emergence herbicidal effect ABUTH [11] [%] | Post-emergence herbicidal effect AMARE [12] [%] | Post-emergence herbicidal effect ECHCG [13] [%] | Post-emergence herbicidal effect PHBPU [15] [%] | Post-emergence herbicidal effect VERPE [18] [%] | Post-emergence herbicidal effect VIOTR [19] [%] | further results
1 | Cc1ccc2c(c1)[C@H](Nc1cc(C(F)F)nc(N)n1)[C@@H](C)C2 [Example 1.30] | 100 | 100 | 100 | 100 | 100 | 100 | 100 | 100 | 85 | 95 | 87 | 90 | 90 | 85 | Pre-emergence herbicidal effect MATIN [5]: 100%; Pre-emergence herbicidal effect STEME [8]: 100%; Post-emergence herbicidal effect LOLMU [14]: 80%; Post-emergence herbicidal effect SETVI [16]: 80%; Post-emergence herbicidal effect STEME [17]: 80%
2 | Cc1ccc2c(c1)[C@H](Nc1cc(Cl)nc(N)n1)[C@@H](C)C2 [Example 1.42] | 100 | 100 | 100 |  | 100 | 100 | 100 | 100 |  | 100 | 90 | 100 | 80 | 90 | Pre-emergence herbicidal effect MATIN [5]: 100%; Pre-emergence herbicidal effect STEME [8]: 100%; Post-emergence herbicidal effect POLCO [20]: 80%; Post-emergence herbicidal effect SETVI [16]: 80%
3 | Nc1ncc(C(F)(F)F)c(N[C@@H]2CCCc3ccccc32)n1 [Example 1.60, N4-[(1R)-1,2,3,4-tetrahydronaphthalen-1-yl]-5-(trifluoromethyl)pyrimidine-2,4-diamine] |  |  |  |  |  |  |  |  |  |  |  |  |  |  | melting point: 120 to 121 °C
4 | Cc1ccc2c(c1)C(Nc1cc(C(F)(F)F)nc(N)n1)C(C)C2 (racemic) [Example 1.31] | 100 |  |  | 80 | 100 | 100 |  |  | 90 | 100 |  |  | 90 |  | Pre-emergence herbicidal effect CYPES [21]: 100%; Post-emergence herbicidal effect CHEAL [22]: 80%; Post-emergence herbicidal effect MATIN [23]: 90%
5 | N#Cc1c(N[C@@H]2CCCc3ccccc32)nc(N)nc1-c1ccccc1 [Example 1.53, 2-Amino-4-phenyl-6-[(1R)-1,2,3,4-tetrahydronaphthalen-1-ylamino]pyrimidine-5-carbonitrile] |  |  |  |  |  |  |  |  |  |  |  |  |  |  | chromatographic logP [24]: 2.87
6 | Nc1nc(N[C@@H]2CCc3ccccc32)cc(C(F)F)n1 [Example 1.36] |  |  |  |  |  |  |  |  | 80 | 100 | 90 | 80 | 90 | 90 | Post-emergence herbicidal effect LOLMU [14]: 90%
7 | Nc1nc(N[C@@H]2CCCc3ccccc32)cc(C(F)F)n1 [Example 1.35] | 80 | 100 | 80 | 100 | 100 | 90 | 100 | 100 |  | 90 |  | 80 |  | 80 | 
8 | Cc1cc(C)c2c(c1)C(Nc1cc(C(F)(F)F)nc(N)n1)CCC2 (racemic) [Example 1.17] |  | 100 |  |  |  |  | 100 |  |  |  |  |  |  |  | 
9 | Nc1nc(Cl)cc(N[C@@H]2CCc3ccccc32)n1 [Example 1.44] |  | 100 |  |  | 100 |  | 100 | 100 |  |  |  |  |  |  | 
10 | Nc1nc(NC2CCc3ccccc32)cc(C(F)(F)F)n1 (racemic) [Example 1.18] |  | 100 |  |  | 100 |  | 100 |  |  |  |  |  |  |  | 
11 | Cc1ccc2c(c1)[C@H](Nc1cc(C(F)(F)F)nc(N)n1)[C@@H](C)C2 [Example 1.27, N4-[(1R,2S)-2,6-dimethyl-2,3-dihydro-1H-inden-1-yl]-6-(trifluoromethyl)pyrimidine-2,4-diamine] |  | 100 | 100 | 80 | 100 | 100 | 100 | 100 | 90 | 100 | 85 | 85 | 85 | 85 | Pre-emergence herbicidal effect MATIN [5]: 100%; Pre-emergence herbicidal effect STEME [8]: 100%; Post-emergence herbicidal effect POLCO [20]: 80%; Post-emergence herbicidal effect SETVI [16]: 80%; chromatographic logP [24]: 2.77

Source: patent US8445408B2, “Pyrimidine derivatives and their use for controlling undesired plant growth” (Bayer Cropscience AG, priority 2008, dated 2013)
